Source: patent US7855228B2, “Antibiotics targeting MreB” (The Board of Trustees of the Leland Stamford Junior …, priority 2005, dated 2010)
Like-named read-outs stand apart in the source and are kept apart here.

Assays:
[1] = system: S. aureus subsp. aureus NBRC15035; assay: Determination of minimum inhibitory concentration (MIC); assay type: cell-based, Staphylococcus aureus; details: Staphylococcus aureus, read-out: MIC S. aureus
In short: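 Two-fold serial agar dilution on L agar and also on Mueller Hinton agar (pH 7.3); 10 µl of stationary-phase culture diluted in 0.85% NaCl to 10^6 cells/ml spotted per plate. MIC taken as lowest concentration inhibiting growth.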

[2] = system: B. subtilis; assay: Induction of spherical cells; assay type: cell-based
Source text: (§1) A22 was effective against Gram-negative rod-shaped bacteria.

[3] = system: P. putida; assay: Induction of spherical cells; assay type: cell-based
Source text: as §1

[4] = system: S. typhimurium; assay: Induction of spherical cells; assay type: cell-based
Source text: as §1

[5] = target: T1, GFP-MreB (Caulobacter vibrioides, UniProt A0A0H3C7V4); assay: GFP-MreB localization; assay type: cell-based, Caulobacter crescentus
T1 construct: expressed in transfected cells; host or cells: Caulobacter crescentus CB15N derivative, xylose-inducible Pxyl:gfp-mreB
T1 sequence (A0A0H3C7V4 whole entry): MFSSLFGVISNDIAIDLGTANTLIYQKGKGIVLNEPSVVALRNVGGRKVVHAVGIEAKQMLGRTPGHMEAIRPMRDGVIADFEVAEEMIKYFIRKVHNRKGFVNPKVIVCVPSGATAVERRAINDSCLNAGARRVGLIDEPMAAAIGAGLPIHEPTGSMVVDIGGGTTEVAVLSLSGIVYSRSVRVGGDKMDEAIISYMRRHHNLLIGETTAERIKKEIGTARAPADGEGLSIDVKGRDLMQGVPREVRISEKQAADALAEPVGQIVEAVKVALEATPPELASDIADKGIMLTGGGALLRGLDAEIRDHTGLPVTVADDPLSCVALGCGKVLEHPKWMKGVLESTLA
Description: A22 Rapidly and Reversibly Delocalizes GFP-MreB. During the Caulobacter cell cycle, MreB forms a lengthwise spiral in swarmer cells and stalked cells. It then appears to condense into an increasingly tight ring positioned at the future site of cell division. When cytokinesis initiates, this ring is replaced by a lengthwise spiral, such that upon cell division each daughter cell inherits a fully expanded spiral. […] Since 10 μg/ml of A22 strongly delocalizes GFP-MreB and blocks cell division without completely inhibiting cell growth, we have chosen to focus most of our subsequent A22 studies on this concentration.
The onset of A22's effect on GFP-MreB is very rapid: within 1 min the GFP-MreB already delocalized (FIG. 4B). A22's effect on GFP-MreB is also rapidly reversible. Diluting the A22 concentration of cells treated with A22 for 1 hr by mounting them on pads lacking A22 leads to a full recovery of MreB localization within 1 min (FIG. 4C). GFP-MreB was monitored in the same cells before, during, and after A22 treatment by timelapse imaging cells in a flow chamber that allows A22 to be washed in and out (FIGS. 4D-4F). […] Cells generally retained a memory of the MreB structure present before A22 treatment (FIGS. […]). Cells with rings recovered rings, cells with spirals recovered spirals, and cells with partially compacted rings recovered partially compacted rings. These findings are consistent with MreB's localization being determined by extrinsic factors regulated by the cell cycle state, rather than an intrinsic MreB localization cycle.
We constructed a fusion of the most common A22-resistant mreB missense mutation (T158A) to GFP and asked if the cellular organization of this MreB mutant is maintained in 10 μg/ml of A22. This fusion was expressed in the corresponding A22-resistant strain, producing merodiploid cells containing both GFP-tagged and -untagged mutated mreB, but no wild-type mreB. […] Since this mutation in the MreB ATP binding pocket perturbs MreB dynamic localization, nucleotide hydrolysis may play a role in regulating MreB dynamics.
Microscopy and Timelapse Imaging. All experiments other than the A22 flow-cell analysis were performed by mounting the samples on 1% agarose pads as described, with the appropriate concentration of A22 added to the agarose. The rates of origin-distal locus segregation were determined by inducing PxyI:lacI:cfp expression with 0.03% xylose for 75 min, isolating swarmer cells, and growing the swarmer cells in M2G liquid medium for 50 min. After 50 min, 10 μg/ml of A22 was added to these liquid cultures, they were mounted onto 1% M2G agarose pads containing 10 μg/ml A22, and a phase and CFP fluorescence image was captured every 2 min for 60 min. The images were analyzed by previously described software to determine the average position and rate of movement of the observed foci.
The A22 flow-cell treatment timelapse images were performed on PxyI:gfp-mreB cells induced for 2 hr with 0.03% xylose. These cells were adhered to polylysine-coated cover slips. The cover slips were then adhered to microscope slides with two parallel strips of double-sided tape (3M), leaving a central channel. An excess of medium containing 0 or 10 μg/ml A22 was pipetted onto one opening of this channel and wicked through by placing a tissue (VWR) on the other end. Images were collected every 30 s.

[6] = system: E. coli JE1011, JST975; assay: Paper disk growth inhibitory zone; assay type: cell-based; details: paper disk φ 8 mm, 200 μg of A22, 24 h, 37° C.
Description: Isolation of A22-resistant mutant Our strategy for identifying the molecular target(s) of A22 involved isolating resistant mutants which grow in the presence of concentrations of A22 that inhibit growth of the parent strain. After 24 h incubation at 37° C., E. coli strains such as JE1011 formed a turbid growth inhibitory zone (φ 12 mm) around a paper disk (φ 8 mm) containing 200 μg of A22. To identify a more suitable parent strain for our selection, we screened for a more drug-sensitive strain that would form clear growth inhibitory zones under similar incubation conditions.
Bacterial strains used E. coli K-12 strains JE1011 (F^− leuB thr trp his thy ara lac xyl mtl rpsL tonA), JST975 (the same as JE1011 but ponB) (Tamaki et al. 1977), W3110 (wild-type), MG1655 (wild-type), DV14 (F^− metB1 panD2 panF1 zhc-12::Tn10) (Vallari & Rock 1985), CAG12149 (F^− zbd-601::Tn10) (Singer et al. 1989), AT1325-678 (F^− lip-9 thi-1 his-4 purB15 proA2 mtl-1 Δmre678) (Wachi et al. 1987) and JM109 [recA1 endA1 gyrA96 thi-1 hsdR17 Δ(lac-proAB) supE44 relA1 F′ (traD36 proAB^+ lacI^q lacZΔM15)] (Yanisch-Perron et al. 1985) were used in this study. Cells were grown in Lennox (L) medium (1% Bactopeptone, 0.5% yeast extracts, 0.5% NaCl, 0.1% glucose, pH 7.2, supplemented with 20 μg/ml thymine). For the growth of AT1325-678, 0.1 μg/ml lipoic acid was supplemented. […]

N=C(N)SCc1ccc(Cl)c(Cl)c1 [Compound 1, S-(3,4-dichlorobenzyl)isothiourea]
MIC ([1]; NBRC15035, Example 2, methods as in Example 1): > 100 µg/mL | MIC ([1]; NBRC15035, Table 1, NBRC15035): > 100 µg/mL | Induction of spherical cells in B. subtilis [2]: did not | Induction of spherical cells in P. putida [3]: induced spherical cells | Induction of spherical cells in S. typhimurium [4]: induced spherical cells | GFP-MreB localization (puncta and bands) ([5]; 1 μg/ml or less): largely maintained | Onset of GFP-MreB delocalization ([5]; 10 μg/ml): ≤ 1 min | GFP-MreB localization ([5]; 10 or 100 μg/ml): completely disrupted this GFP-MreB localization | Full recovery of MreB localization after diluting A22 ([5]; cells treated 1 hr, mounted on pads lacking A22): ≤ 1 min | Growth inhibitory zone (turbid) ([6]; JE1011): 12 mm | Growth inhibitory zone (clear) ([6]; JST975 (ponB)): 32 mm
